Earlier results as cited in US5594100A, “Epitope for prevention of type I diabetes” (Regents of the University of Colorado, priority 1995, dated 1997).

System: islet-specific T cell lines and clones from islet-infiltrating lymphocytes
Conditions: panel of nominally islet-specific lines and clones from female NOD mice

In the case of “porcine insulin: Porcine insulin (Sigma) used for testing specificity of insulin-specific T cell lines and clones”, the “T cell lines and clones responding to porcine insulin” value is given as 22 of 40 and the “percent of T cell lines and clones responding to porcine insulin” value is given as 55%.
